According to US11466020B2, “Compounds and compositions for inhibition and elimination of Zika infection and uses for same” (Cornell University, priority 2017, dated 2022):
Entries after “also recorded” stand apart in the source; their conditions may differ. Counter-ions that a name gives are not always drawn.

Tested on: ZIKV MR766 virus strain
Test: Prophylactic treatment of ZIKV infected SCID-Beige mice
Type: in vivo
Procedure: (A) Scheme of prophylactic treatment of HH in vivo. HH was administrated to SCID-Beige mice 12 h before infection with MR766 virus strain. HH was injected at a dose of 100 mg/kg/day subcutaneously and euthanized at day 7. (B) qRT-PCR analysis of total ZIKV vRNA in liver, spleen, kidney and brain of ZIKV infected mice. n=12 for liver, spleen and kidney and 20 for brain. (C) qRT-PCR analysis of total ZIKV vRNA in brains of ZIKV-infected mice treated with vehicle (n=14) or HH (n=8). […] (D-F) Immunohistochemical analysis of adult cortex. […] Scale bar=100 μm in (D) and 10 μm in (E, F). (G-I) Immunohistochemical analysis of adult hippocampus. […] Scale bar=100 μm in (G) and 10 μm in (H, I). (J-L) Immunohistochemical analysis of adult striatum. […] Scale bar=100 μm in (J) and 10 μm in (K, L). (M, N) Immunohistochemical analysis of cellular apoptosis in adult cortex. […] Scale bar=100 μm in (M) and 10 μm in (N). (O, P) Expression kinetics of total vRNA (O) and (−) strand vRNA (P) of ZIKV (MR766 strain) in mouse brain. N is larger or equal to 4 mice at each time points. The mice were inoculated with (1×10^6 PFU) through intraperitoneal injection. The mice were euthanized at 12 h, 24 h, 3 days, 4 days and 5 days post-infection. (Q) Scheme of therapeutic treatment of HH on ZIKV (MR766 strain) infected mice. The SCID-beige mice were infected with ZIKV (MR766 strain, 1×10^6 PFU). The mice at 5 days post-infection were treated with 100 mg/kg HH or vehicle daily for 5 days. The mice were then euthanized and RNA from brains was analyzed using qRT-PCR. (R, S) qRT-PCR analysis of total vRNA (R) and (−) strand RNA (S) in the brains of mice treated with vehicle (n=8) or HH (n=8) at day 5 post-infection. (T, U) Expression kinetics of total vRNA (N) and (−) strand vRNA (O) of ZIKV (FSS13025 strain) in mouse brain. N is larger or equal to 4 mice at each time points. The mice were inoculated with (3×10^6 PFU) through intraperitoneal injection. The mice were euthanized at 12 h, 24 h, 3 days, 5 days and 7 days post-infection. (V) Scheme of therapeutic treatment of HH on ZIKV (FSS13025 strain) infected mice. The SCID-beige mice were infected with ZIKV (FSS13025 strain, 3×10^6 PFU). The mice at 7 days post-infection were treated with 100 mg/kg HH or vehicle daily for 7 days. The mice were euthanized after 7 days treatment and RNA from brains was analyzed using qRT-PCR. (W, X) qRT-PCR analysis of total vRNA (W) and (−) strand RNA (X) in the brains of mice treated with vehicle (n=8) or HH (n=11) at day 7 post-infection. p values were calculated by one-way repeated measures ANOVA or two-way repeated measures ANOVA with a Bonferroni test for multiple comparisons. *p<0.05, **p<0.01 and ***p<0.001.
PBS, the solvent used to dissolve both compounds, was used as vehicle control.
The mice were euthanized at day 7 post-infection. Total ZIKV vRNA was then quantified in multiple organs of ZIKV-infected mice treated with vehicle, including liver, spleen, kidney and brain (FIG. 4B).
The immunohistochemical analysis of mouse tissues was performed on cryosections. In brief, the tissues were fixed overnight with 4% PFA at 4° C., embedded in OCT, and then sectioned at 30 μm for immunostaining. The primary and secondary antibodies were used as described above.
Adult mouse infection and in vivo drug testing. 6-8 week old female SCID-Beige mice were infected with ZIKV (2.5×10^5 PFU in 0.5 ml culture fluid) through intraperitoneal injection.

[1] = HH 100 mg/kg/day subcutaneously, hydrobromide

Compound: CN1CCC2=C[C@H](O)[C@H]3OC(=O)c4cc5c(cc4[C@H]3[C@@H]21)OCO5 [HH, hippeastrine hydrobromide]
- ZIKV vRNA in brain (HH 100 mg/kg/day subcutaneously from 12 h before infection, day 7 post-infection): significantly lower level
- ZIKV infection of adult cortex (immunohistochemistry) [1]: fully inhibits infection of adult cortex; also recorded: completely inhibited
- ZIKV infection of adult hippocampus (immunohistochemistry) [1]: completely inhibits infection of the adult hippocampus; also recorded: completely inhibited
- ZIKV infection of adult striatum (immunohistochemistry) [1]: fully inhibits infection of the adult striatum; also recorded: completely inhibited
- cellular apoptosis (CAS3) associated with ZIKV infection in the cortex [1]: rescues cellular apoptosis; also recorded: completely inhibited
